Where a SMILES comes first, the peptide text is derived from it. [ ]: non-standard residue; d: D form. The star is where a group is joined. DON = [N-]=[N+]=CC(=O)CC[C@H](N)C(=O)O; Cbz = O=C(OCc1ccccc1)*

Assay [1] has as its system recombinant human NBD1 (rhNBD1). As to the kind of experiment: Surface plasmon resonance peptide-protein interaction. It is filed as binding. Particulars: rhNBD1 immobilized on chip, different peptide concentrations. Here is the method:
Peptide-protein interactions were studied using a Biacore™ T100 (GE Healthcare) instrument. hrNBD1 domain or the indicated biotinylated peptides were immobilized by thiol coupling on a CMS (series S) sensor chip to a final density of 2000 resonance units (RU) or by biotin-streptavidin capture on a SA (series S) sensor chip to a final density of 250 RU, respectively. A flow cell with no immobilized protein or peptide was used as control. Binding analysis was carried out at 20° C. in a running buffer consisting of 10 mM HEPES, pH 7.4, 150 mM NaCl, 0.05% (v/v) Tween-20, 2 mM ATP, 5 mM MgCl2, 1 mM DTT applying a flow rate of 20 μl/min. For each experiment a Biacore™ method program was used. It included a series of three start up injections (running buffer), zero control (running buffer) and different concentrations of ligand. […] Each sensorgram (time-course of the surface plasmon resonance signal) was corrected for the response obtained in the control flow cell and normalized to baseline. Data were analysed using the 2.0.3 BIAevaluation software (GE Healthcare). At least three independent experiments for each analysis were performed.
FIG. 2: a, Protein-Protein docking and Molecular Dynamics of P31-43 (violet) bound to NBD1 (orange). Left side: general view of P31-43 and NBD1 interaction. Upper right: detailed interaction pattern, highlighting the most important amino acids. Lower right: in silico NBD1/P31-43 complex compared to the original crystallographic positions of Tip 401 and ATP. b, Graphical view of the in silico sampling percentage of P31-43 against NBD1/NBD2 (left 10 panel), and of P31-43/4QA (4QA) against NBD1 (right panel). c-d, Surface plasmon resonance (SPR) analysis of rhNBD1 binding to P31-43 and P57-68 biotinylated peptides immobilized on SA sensor chip (c) and of increasing concentrations of P31-43 and P57-68 peptides 15 on rhNBD1 covalently bound to the CMS sensor chip (d).
In general terms: SPR reads the build-up and loss of mass on a sensor chip optically.

Another assay concerns the target T1, TG2 (Homo sapiens, UniProt P21980).
T1 construct: Immunoprecipitations of endogenous proteins were performed on 500 μg of lysates from Caco-2 cells; host or cells: Caco-2
T1 sequence (P21980 1-687): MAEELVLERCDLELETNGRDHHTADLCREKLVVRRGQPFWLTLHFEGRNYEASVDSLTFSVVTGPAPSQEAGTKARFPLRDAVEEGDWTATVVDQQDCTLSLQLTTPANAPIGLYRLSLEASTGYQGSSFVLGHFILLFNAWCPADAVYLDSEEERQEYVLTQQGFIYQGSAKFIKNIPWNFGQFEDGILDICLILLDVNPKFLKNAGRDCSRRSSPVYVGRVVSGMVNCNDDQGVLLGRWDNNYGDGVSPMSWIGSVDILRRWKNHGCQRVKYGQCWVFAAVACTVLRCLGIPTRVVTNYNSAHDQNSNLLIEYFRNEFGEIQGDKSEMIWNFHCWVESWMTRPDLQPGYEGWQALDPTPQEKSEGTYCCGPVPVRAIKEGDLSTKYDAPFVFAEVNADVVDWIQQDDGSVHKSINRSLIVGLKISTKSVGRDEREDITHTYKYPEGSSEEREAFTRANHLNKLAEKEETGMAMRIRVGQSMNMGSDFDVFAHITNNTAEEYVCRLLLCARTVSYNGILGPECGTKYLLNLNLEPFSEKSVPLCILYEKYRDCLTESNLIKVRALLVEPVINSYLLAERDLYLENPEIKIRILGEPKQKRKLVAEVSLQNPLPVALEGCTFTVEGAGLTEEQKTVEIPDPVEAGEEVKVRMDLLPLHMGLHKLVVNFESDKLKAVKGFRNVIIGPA
Description: TG2 interaction and TG2 activity in Caco-2 cells. Particulars: Caco-2 cells. Type of assay: cell-based. Here is the method:
Human colon adenocarcinoma-derived Caco-2 and T84 cells were obtained from the ATCC. Cells were maintained in T25 flask in Modified Eagle Medium (MEM) for Caco-2, or Ham's F12+DMEM (1:1) for T84, supplemented with 10% fetal bovine serum (FBS), 2 mM Glutamine+1% Non Essential Amino Acids (NEAA) and the antibiotics penicillin\streptomycin (100 units/ml) (all reagents from Lonza) (Luciani, A., et al. 2010. Cells were grown in Transwells (Corning, 3470 or 3460) under the normal condition (Luciani, A., et al. 2012). Briefly, 8×10^4 or 5×10^5 cells were seeded in 6.5-mm diameter or 12-mm diameter, respectively, and grown until the RT reached 800 to 1,200 Ω·cm2. Transwells with a pore size of 0.4 μm were used. Medium in both the apical and basolateral chambers was changed every other day. Cells were treated with 20 μg/ml of either α-gliadin peptide P31-43 or […] or scrambled PGAV or modified P31-43 either biotin-tagged or not, for different time point (from 1 h short challenge up to 24 h). Cells were also treated with 50 or 100 μg/ml of P57-68 or PGAV peptides for 3 h. Caco-2 or T84 cells were also treated with: CFTR potentiators VX-770 (10 μM) or VX-532 (20 μM) (Selleck chemicals) or Genistein (10 μM) (Sigma-Aldrich) or in presence or absence of CFTR inhibitor172 (CFTRinh172, 20 μM) or 3-methyl-adenine (3-MA, 20 μM) (Calbiochem), Z-DON (20 nM, Zedira) or BAPTA-AM (10 μM, Calbiochem).
The whole lysate or membrane fraction proteins of cell lines and mice intestine homogenates were obtained from treated and untreated cells or mice as described. The equal amount of protein were resolved by SDS-PAGE gel and blotted with antibodies against: SQSTM1, (Sigma Aldrich, 108k4767) 1:1000, PPARγ (Santa Cruz Biotechnology, sc7273) 1:500, BECN1 (Abcam, ab58878) 1:1000, CFTR clone M3A7 (Abcam, ab4067) 1:500, phospho-ERK1/2 (php42/44, Cell Signaling Technology, #91101) 1:1000, UVRAG (Santa Cruz Biotechnology sc8215) 1:1000, NHERF-1 (BD, 611161) 1:1000, EZRIN (BD, 610603) 1:1000, hVps34 (SigmaV9764) 1:300, biotin (Abcam, ab1227) 1:2000, PKAr2a (BD, 610625) 1:500, Ubiquitin (Cell Signaling clone P4D1, #3936) 1:1000, CHIP (Calbiochem PC711) 1:500, Caspase-1 p10 (M-20) (Santa Cruz Biotechnology, sc-514) 1:200, NLRP3 (Abcam, ab4207), 1:500, IDO1 (monoclonal; cv152) 1:1000^[80], used as primary antibodies. Normalization was performed by probing the membrane with anti-β-actin (Cell Signaling, #4970) 1:1000, anti-Gapdh (Sigma-Aldrich, G8795) 1:1000 and anti-flottilin (Abcam ab15148) 1:1000 antibodies. Immunoprecipitations of endogenous proteins were performed on 500 μg of lysates from Caco-2 cells. The proteins were incubated for 12-18 h at 4° C. with 10 ug\ml of specific antibody followed by the addition of Protein A/G-agarose beads for 4 h at 4° C. The beads were then washed three times with lysis buffer and Laemmli's sample buffer was added to the samples. The membranes were then blotted with: CFTR clone CF3 (Abcam, ab2784) 1:1000, TG2 (clone CUB7402; NeoMarkers) 1:1000, CHIP (Calbiochem PC711) 1:500, Ubiquitin (Cell Signaling clone P4D1 3936), isopeptide (Abcam 422) 1:1000, PKAR2 (BD 610625) 1:500.
For detection of complex with biotnylated-P31-43 or immune-complex of glutamime-lysine bonds, the beads were resolved in non-reducing and non-denaturating conditions, and then blotted with Streptavidin-HRP (Sigma 52438) 1:3000 or anti-biotin (Abcam ab2103) 1:2500 and anti-isopeptide (Abcam 422) 1:1000.
TG2 enzymatic activity in Caco-2, treated as described above, was detected: 1) by incubating unfixed sections with biotin-mono-dansylcadaverine (MDC, 10 mM, Molecular Probe) for 1 h at room temperature and then stained with Alexa-fluor488-Streptavidin, as previously described (JI2008/2009) or 2) or by incorporation of 5(biotinamido)pentylamines (BAP) into protein substrates. For BAP-incorporation, 2 mM BAP (Soltec Ventures, B110) were directly added into the medium together with the indicated treatments. […]

Assay [2] concerns the target T2, CFTR (Homo sapiens, UniProt P13569).
T2 construct: Immunoprecipitations of endogenous proteins were performed on 500 μg of lysates from Caco-2 cells; host or cells: Caco-2, T84
As to the kind of experiment: Co-immunoprecipitation of biotinylated peptides with CFTR in Caco-2 cells. Type of assay: cell-based. To be noted: 1 h with biotinylated peptides.
Description: Human colon adenocarcinoma-derived Caco-2 and T84 cells were obtained from the ATCC. Cells were maintained in T25 flask in Modified Eagle Medium (MEM) for Caco-2, or Ham's F12+DMEM (1:1) for T84, supplemented with 10% fetal bovine serum (FBS), 2 mM Glutamine+1% Non Essential Amino Acids (NEAA) and the antibiotics penicillin\streptomycin (100 units/ml) (all reagents from Lonza) (Luciani, A., et al. 2010. Cells were grown in Transwells (Corning, 3470 or 3460) under the normal condition (Luciani, A., et al. 2012). Briefly, 8×10^4 or 5×10^5 cells were seeded in 6.5-mm diameter or 12-mm diameter, respectively, and grown until the RT reached 800 to 1,200 Ω·cm2. Transwells with a pore size of 0.4 μm were used. Medium in both the apical and basolateral chambers was changed every other day. […] Cells were also treated with 50 or 100 μg/ml of P57-68 or PGAV peptides for 3 h. Caco-2 or T84 cells were also treated with: CFTR potentiators VX-770 (10 μM) or VX-532 (20 μM) (Selleck chemicals) or Genistein (10 μM) (Sigma-Aldrich) or in presence or absence of CFTR inhibitor172 (CFTRinh172, 20 μM) or 3-methyl-adenine (3-MA, 20 μM) (Calbiochem), Z-DON (20 nM, Zedira) or BAPTA-AM (10 μM, Calbiochem).
The separation of endosomal fractions was performed as described^9 from treated and untreated cells. Protein of endosomal fraction were resolved by SDS-Page and blotted with primary antibodies against Rab-5(Abcam 18211) 1:500, Rab-7(Abcam 77993) 1:500, EEA-1 (Abcam 2900) 1:500, TG2 or CFTR. EEA-1 was used as early endosome marker. For detection of complex with biotnylated-P31-43, the beads were resolved in non-reducing and non-denaturating conditions, and then blotted with Streptavidin-HRP (Sigma S2438) 1:3000 or anti-biotin (Abcam ab2103) 1:2500.

In assay [3] the target is T2, CFTR. As to the kind of experiment: CFTR channel function in intestinal epithelial cells (forskolin-induced Isc in Ussing chambers; SPQ iodide efflux). Particulars: 20 μg/ml peptide; intestinal epithelial cells (Caco-2, T84). It is filed as cell-based. The procedure:
Human colon adenocarcinoma-derived Caco-2 and T84 cells (Barone, M. V. et al. 2014; Luciani, A. et al. 2010) were obtained from the ATCC. Cells were maintained in T25 flask in Modified Eagle Medium (MEM) for Caco-2, or Ham's F12+DMEM (1:1) for T84, supplemented with 10% fetal bovine serum (FBS), 2 mM Glutamine+1% Non Essential Amino Acids (NEAA) and the antibiotics penicillin\streptomycin (100 units/ml) (all reagents from Lonza). Caco-2 cells were grown in Transwells (Corning, 3470 or 3460) under the normal condition. Briefly, 8×10^4 or 5×10^5 cells were seeded in 6.5-mm diameter or 12-mm diameter, respectively, and grown until the RT reached 800 to 1,200 Ω·cm^2. Transwells with a pore size of 0.4 μm were used. Medium in both the apical and baso lateral chambers was changed every other day. Cells were treated with 20 μg/ml of either with the α-gliadin peptide comprising the P31-43 amino acid sequence of α-gliadin LGQQQPFPPQQPY (SEQ ID 1) (below referred to as P31-43), which is known to induce an enterocyte stress response (Meresse, B. et al.2009; Barone, M. V. et al. 2014; Luciani, A. et al. 2010), the T-cell activating α-gliadin peptide comprising the P57-68 amino acid sequence of α-gliadin (QLQPFPQPQLPY SEQ ID 2)) (below referred to as P57-68) (Maiuri, L., et al. 2003; Meresse, B. et al.2009; 30 Barone, M. V. et al. 2014), or the scrambled GAVAAVGVVAGA (SEQ ID 3) control peptide (below referred to as PGAV), or with different modified P31-43, either biotin-tagged or not, for different time points (from 1 h short challenge up to 24 h). Cells were also treated with 50 or 100 5 μg/ml of P57-68 or PGAV peptides for 3 h.
Caco-2 or T84 cells were also treated with: CFTR potentiators VX-770 (Ivacaftor) (10 μM) or VX-532 (20 μM) (Selleck chemicals) or Genistein (10 μM) (Verkman, A. S. et al. 2005; Jih, K. Y. et al. 2013) (Sigma-Aldrich) or in presence or absence of CFTR inhibitor172 (CFTRinh172, 20 μM).
Human colon adenocarcinoma-derived Caco-2 and T84 cells were obtained from the ATCC. Cells were maintained in T25 flask in Modified Eagle Medium (MEM) for Caco-2, or Ham's F12+DMEM (1:1) for T84, supplemented with 10% fetal bovine serum (FBS), 2 mM Glutamine+1% Non Essential Amino Acids (NEAA) and the antibiotics penicillin\streptomycin (100 units/ml) (all reagents from Lonza) (Luciani, A., et al. 2010. Cells were grown in Transwells (Corning, 3470 or 3460) under the normal condition (Luciani, A., et al. 2012). Briefly, 8×10^4 or 5×10^5 cells were seeded in 6.5-mm diameter or 12-mm diameter, respectively, and grown until the RT reached 800 to 1,200 Ω·cm2. Transwells with a pore size of 0.4 μm were used. Medium in both the apical and basolateral chambers was changed every other day. […]

T2 sequence (P13569 whole entry): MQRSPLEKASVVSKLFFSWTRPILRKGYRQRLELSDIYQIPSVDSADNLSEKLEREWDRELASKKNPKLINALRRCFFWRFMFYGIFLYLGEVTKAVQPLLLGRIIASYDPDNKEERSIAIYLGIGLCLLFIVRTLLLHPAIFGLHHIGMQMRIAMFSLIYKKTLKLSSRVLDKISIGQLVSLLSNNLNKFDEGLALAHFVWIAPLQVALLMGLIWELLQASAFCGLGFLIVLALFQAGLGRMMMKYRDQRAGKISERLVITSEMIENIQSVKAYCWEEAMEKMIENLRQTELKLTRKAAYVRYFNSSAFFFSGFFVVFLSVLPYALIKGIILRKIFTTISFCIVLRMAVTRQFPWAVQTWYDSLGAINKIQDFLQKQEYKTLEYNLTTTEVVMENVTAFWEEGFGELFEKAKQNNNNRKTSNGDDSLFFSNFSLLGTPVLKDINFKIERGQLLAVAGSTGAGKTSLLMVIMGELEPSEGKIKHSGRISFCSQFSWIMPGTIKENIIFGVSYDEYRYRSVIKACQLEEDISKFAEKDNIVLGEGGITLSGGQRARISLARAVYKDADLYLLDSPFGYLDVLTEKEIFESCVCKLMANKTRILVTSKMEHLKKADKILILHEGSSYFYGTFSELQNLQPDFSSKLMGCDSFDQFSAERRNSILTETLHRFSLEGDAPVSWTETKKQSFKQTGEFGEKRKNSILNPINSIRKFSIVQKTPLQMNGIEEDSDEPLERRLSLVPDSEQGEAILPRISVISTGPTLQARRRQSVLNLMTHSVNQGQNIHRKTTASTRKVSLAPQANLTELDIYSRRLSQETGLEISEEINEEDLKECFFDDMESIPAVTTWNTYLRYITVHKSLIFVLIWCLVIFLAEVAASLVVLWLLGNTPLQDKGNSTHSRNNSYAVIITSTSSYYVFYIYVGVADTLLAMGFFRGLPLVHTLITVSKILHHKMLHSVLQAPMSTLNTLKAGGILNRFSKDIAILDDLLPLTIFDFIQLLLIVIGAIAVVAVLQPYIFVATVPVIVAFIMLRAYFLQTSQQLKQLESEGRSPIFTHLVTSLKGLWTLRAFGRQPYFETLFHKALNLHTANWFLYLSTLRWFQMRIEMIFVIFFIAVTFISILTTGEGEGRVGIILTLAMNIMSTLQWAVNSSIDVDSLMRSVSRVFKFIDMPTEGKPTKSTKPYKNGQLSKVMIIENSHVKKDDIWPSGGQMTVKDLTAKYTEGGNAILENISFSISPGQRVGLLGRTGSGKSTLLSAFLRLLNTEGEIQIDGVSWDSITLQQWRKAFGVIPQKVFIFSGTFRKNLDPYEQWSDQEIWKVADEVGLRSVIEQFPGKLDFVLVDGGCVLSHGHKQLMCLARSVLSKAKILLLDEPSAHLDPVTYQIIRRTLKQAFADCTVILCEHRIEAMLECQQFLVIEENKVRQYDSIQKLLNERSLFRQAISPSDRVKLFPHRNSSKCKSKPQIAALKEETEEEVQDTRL

Consider “P57-68: T-cell activating α-gliadin peptide QLQPFPQPQLPY (SEQ ID 2) (P57-68 sequence of alpha-gliadin)”, for which the “SPR signal on immobilized rhNBD1” value in assay [1] is “failed to induce any signal”.

As for `COC(=O)[C@H](CC(C)C)NC(=O)[C@@H]1CCCN1C(=O)[C@@H](NC(=O)[C@H](CCC(=O)C=[N+]=[N-])NC(=O)OCc1ccccc1)C(C)C` [Z-DON] (Cbz-[DON]VPL-OMe), the “effect on P31-43-induced interaction of TG2 and CFTR” value on TG2 is reported as “prevented”.

For `CC(=O)OCOC(=O)CN(CC(=O)OCOC(C)=O)c1ccccc1OCCOc1ccccc1N(CC(=O)OCOC(C)=O)CC(=O)OCOC(C)=O` [BAPTA-AM], on TG2, the “effect on P31-43-induced interaction of TG2 and CFTR” value is on record as “prevented”.

“4QA: P31-43 with glutamines at residues 4, 5, 10 and 11 substituted with alanines, LGQAAPFPPAAPY (SEQ ID 4) (P31-43 sequence of alpha gliadin with glutamine residues at positions 4, 5, 10 and 11 substituted with alanines)”: the “interaction (co-immunoprecipitation) with CFTR” value is on record as “failed to interact with CFTR” in the assay with CFTR [2] and “did not co-immunoprecipitate with CFTR” with CFTR [2] (listed as Q4A). For the same compound, in the assay with CFTR [3], the “reduction of CFTR channel function in response to forskolin” value is “failed to interact with CFTR and to inhibit its function”. Besides, the “SPR signal on immobilized rhNBD1” value in assay [1] is recorded as “failed to interact with NBD1”.

For the origin of these results see US20200206198A1, “CFTR CHANNEL ACTIVATOR FOR USE IN THE TREATMENT AND/OR PREVENTION OF GLUTEN SENSITIVITY CONDITIONS” (priority 2017, published 2020).
